Data: paper PMC4370687, “Functional Characterization of the 1,5-Benzodiazepine Clobazam and Its Major Active Metabolite N-Desmethylclobazam at Human GABAA Receptors Expressed in Xenopus laevis Oocytes” (PLoS ONE, 2015)
Marks after values point to notes of the source that are not given here.

Legend:
human α2β2γ2S GABAAR = molecular target: T1, human α2β2γ2S GABAAR (Homo sapiens, UniProt P18507+P47869+P47870); assay: Potentiation of GABA EC20-evoked currents, TEVC in Xenopus oocytes; type: cell-based; conditions: for Imax ± S.E.M.: % of the response evoked by GABA EC20 (EC20 response = 100%)
T1 construct: expressed in transfected cells; host or cells: Xenopus laevis oocytes (cRNA injection, α:β2:γ2S 1:1:1; 1:1:5 in the zolpidem comparison)
T1 sequence (P47869 29-451, one chain of several): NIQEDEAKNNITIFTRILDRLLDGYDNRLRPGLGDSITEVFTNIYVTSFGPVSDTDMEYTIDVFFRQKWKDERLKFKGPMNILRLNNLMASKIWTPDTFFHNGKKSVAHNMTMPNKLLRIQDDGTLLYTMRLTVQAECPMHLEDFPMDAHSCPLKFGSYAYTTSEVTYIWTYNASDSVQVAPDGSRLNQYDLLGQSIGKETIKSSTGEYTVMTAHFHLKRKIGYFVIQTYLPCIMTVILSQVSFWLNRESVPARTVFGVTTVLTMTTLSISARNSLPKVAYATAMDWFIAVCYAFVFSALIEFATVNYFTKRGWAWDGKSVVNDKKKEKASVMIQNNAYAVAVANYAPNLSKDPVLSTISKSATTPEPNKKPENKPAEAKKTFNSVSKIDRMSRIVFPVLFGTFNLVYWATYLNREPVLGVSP
T1 sequence (P18507 40-467 isoform P18507-1 limits assumed, one chain of several): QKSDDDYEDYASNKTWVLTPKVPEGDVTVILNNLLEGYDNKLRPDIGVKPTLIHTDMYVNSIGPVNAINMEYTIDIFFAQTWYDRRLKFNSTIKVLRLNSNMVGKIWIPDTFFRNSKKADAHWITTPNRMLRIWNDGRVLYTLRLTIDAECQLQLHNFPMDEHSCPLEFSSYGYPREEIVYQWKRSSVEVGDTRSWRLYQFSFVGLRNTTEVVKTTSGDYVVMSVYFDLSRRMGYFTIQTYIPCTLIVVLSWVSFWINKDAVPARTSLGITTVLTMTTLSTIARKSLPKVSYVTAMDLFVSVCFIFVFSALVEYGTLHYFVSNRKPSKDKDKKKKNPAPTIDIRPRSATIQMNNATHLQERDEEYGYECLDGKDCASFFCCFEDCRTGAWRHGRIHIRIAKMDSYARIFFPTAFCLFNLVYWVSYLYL
Description: (§1) The cDNAs encoding the human GABAAR subunits were linearized with DraIII (α1, α2, α3, α5 and α6), SmaI (β2 and γ2S) or StuI (δ) and used as templates for in vitro cRNA synthesis using the T7 mMESSAGE mMACHINE High Yield Capped RNA Transcription Kit (Life Technologies Corporation, Carlsbad, CA, USA). Except where otherwise indicated, Xenopus oocytes were injected with 36.8 nL cRNA solution encoding for α1β2γ2S, α2β2γ2S, α3β2γ2S and α5β2γ2S GABAARs in a 1:1:1 α:β2:γ2S ratio (2.7 ng/μL of each subunit), with 46 nL cRNA solution encoding for the α6β2δ GABAAR in a 10:1:10 α6:β2:δ ratio (1:0.1:1 μg/μL), with 18 nL cRNA solution encoding for the α1β2 GABAAR in a 1:1 α1:β2 ratio (0.6:0.6 μg/μL), or with 46 nL cRNA encoding for α6β2 (α6:β2 ratio: 1:0.1 μg/μL). Following injection, the oocytes were incubated at 18°C in modified Barth’s solution [88 mM NaCl, 1 mM KCl, 15 mM HEPES (pH 7.5), 2.4 mM NaHCO3, 0.41 mM CaCl2, 0.82 mM MgSO4, 0.3 mM Ca(NO3)2, 100 U/mL penicillin and 100 μg/mL streptomycin]. Electrophysiological recordings were performed 3 to 6 days after injection.
(§2) Electrophysiological recordings were performed using the TEVC technique on Xenopus oocytes expressing various GABAAR combinations using a protocol adapted from previous studies. […] Cells were impaled with agar-plugged 0.5–1 MΩ electrodes containing 3 M KCl and voltage clamped at −70 mV by a Gene Clamp 500B amplifier (Axon Instruments, Union City, CA, USA) and recorded with pClamp 10 (Windows version, Molecular Devices, LLC, Sunnyvale, CA, USA). The oocytes were continuously perfused with Ringer buffer, and the test compounds were applied in the perfusate. Experiments were performed at room temperature and each data point represents the mean ± S.E.M. value of recordings performed on at least two oocytes from at least two different batches of oocytes. The recorded baseline-to-peak current amplitudes were analyzed using Clampfit 10.1 (Axon Instruments, Union City, CA, USA). […] The presence of δ in cell surface-expressed receptors in α6β2δ-injected oocytes was confirmed on a routinely basis using the δ-GABAAR selective PAM DS2 (1 μM). Furthermore, taking advantage of the differential sensitivity of αβ and αβδ receptors to Zn^2+ as antagonist, 1 μM ZnCl2 was used to verify that a homogenous population of ternary α6β2δ receptor complexes was expressed in these oocytes.
(§3) Two to five minutes of wash time between each application were permitted to overcome receptor desensitization. […] Concentration-response curves for the benzodiazepines were fitted using Equation 1.
To address this aspect, we compared the maximum responses mediated by saturating concentrations (3 μM) of clobazam, N-desmethylclobazam, and clonazepam at the GABAARs with the maximal responses mediated by a saturating concentration of diazepam, a 1,4-benzodiazepine often referred to as a “full benzodiazepine agonist”. […] We also compared the maximum degree of potentiation mediated by clobazam at the α2β2γ2S GABAAR with the maximal responses induced by a saturating concentration of zolpidem. […] In this experiment cRNA for α2β2γ2S was injected in a ratio of 1:1:5 (α2:β2:γ2S) to facilitate the expression of a homogenous population of γ2S-containing complexes.

human α3β2γ2S GABAAR = molecular target: T2, human α3β2γ2S GABAAR (Homo sapiens, UniProt P18507+P34903+P47870); assay: as above; type: cell-based; conditions: for Imax ± S.E.M.: % of the response evoked by GABA EC20 (EC20 response = 100%)
T2 construct: expressed in transfected cells; host or cells: Xenopus laevis oocytes (cRNA injection, 1:1:1)
T2 sequence (P34903 29-492, one chain of several): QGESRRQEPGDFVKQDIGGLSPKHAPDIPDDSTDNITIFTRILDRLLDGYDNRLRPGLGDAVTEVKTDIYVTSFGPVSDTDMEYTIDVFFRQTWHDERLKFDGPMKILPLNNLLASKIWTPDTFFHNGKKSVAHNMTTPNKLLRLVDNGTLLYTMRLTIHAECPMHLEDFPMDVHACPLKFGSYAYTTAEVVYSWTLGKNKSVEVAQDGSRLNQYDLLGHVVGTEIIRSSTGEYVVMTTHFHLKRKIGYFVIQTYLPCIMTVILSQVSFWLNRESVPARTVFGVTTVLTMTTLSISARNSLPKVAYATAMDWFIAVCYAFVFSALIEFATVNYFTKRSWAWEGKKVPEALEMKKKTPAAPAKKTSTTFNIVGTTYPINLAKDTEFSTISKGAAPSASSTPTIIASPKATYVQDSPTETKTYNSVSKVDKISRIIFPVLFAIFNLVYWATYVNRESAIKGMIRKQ
T2 sequence (P18507 40-467 isoform P18507-1 limits assumed, one chain of several): as the sequence (P18507 40-467 isoform P18507-1 limits assumed, one chain of several) above
Description: as §1, §2, §3

human α5β2γ2S GABAAR = molecular target: T3, human α5β2γ2S GABAAR (Homo sapiens, UniProt P18507+P31644+P47870); assay: as above; type: cell-based; conditions: for Imax ± S.E.M.: % of the response evoked by GABA EC20 (EC20 response = 100%)
T3 construct: expressed in transfected cells; host or cells: Xenopus laevis oocytes (cRNA injection, 1:1:1)
T3 sequence (P31644 32-462, one chain of several): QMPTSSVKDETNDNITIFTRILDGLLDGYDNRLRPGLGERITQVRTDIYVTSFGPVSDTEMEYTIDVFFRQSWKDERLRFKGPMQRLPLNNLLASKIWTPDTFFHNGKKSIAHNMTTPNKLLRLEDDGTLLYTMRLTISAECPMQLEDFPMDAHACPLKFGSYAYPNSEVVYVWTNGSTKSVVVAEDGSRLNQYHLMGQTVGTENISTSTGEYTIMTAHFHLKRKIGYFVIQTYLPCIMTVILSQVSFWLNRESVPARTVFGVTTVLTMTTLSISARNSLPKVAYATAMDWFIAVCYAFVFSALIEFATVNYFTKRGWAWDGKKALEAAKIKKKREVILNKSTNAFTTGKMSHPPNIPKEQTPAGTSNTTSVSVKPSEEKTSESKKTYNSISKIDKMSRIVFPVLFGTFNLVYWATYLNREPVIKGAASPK
T3 sequence (P18507 40-467 isoform P18507-1 limits assumed, one chain of several): as the sequence (P18507 40-467 isoform P18507-1 limits assumed, one chain of several) above
Description: as §1, §2, §3

human α6β2 GABAAR = molecular target: T4, human α6β2 GABAAR (Homo sapiens, UniProt P47870+Q16445); assay: as above; type: cell-based
T4 construct: expressed in transfected cells; host or cells: Xenopus laevis oocytes (cRNA injection)
T4 sequence (Q16445 20-453, one chain of several): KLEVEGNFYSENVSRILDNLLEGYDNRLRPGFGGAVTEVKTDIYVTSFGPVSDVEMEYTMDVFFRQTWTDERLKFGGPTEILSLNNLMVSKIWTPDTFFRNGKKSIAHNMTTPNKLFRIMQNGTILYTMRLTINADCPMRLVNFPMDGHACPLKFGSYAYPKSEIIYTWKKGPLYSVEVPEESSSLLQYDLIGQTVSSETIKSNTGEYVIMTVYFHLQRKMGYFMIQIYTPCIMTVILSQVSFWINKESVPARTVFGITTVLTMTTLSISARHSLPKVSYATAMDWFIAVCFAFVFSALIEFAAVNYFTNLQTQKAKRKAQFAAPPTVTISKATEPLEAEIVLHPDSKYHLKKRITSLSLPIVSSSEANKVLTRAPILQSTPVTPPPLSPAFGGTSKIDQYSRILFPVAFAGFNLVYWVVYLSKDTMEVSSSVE
Description: as §1, §2, §3

human α6β2δ GABAAR = molecular target: T5, human α6β2δ GABAAR (Homo sapiens, UniProt P47870+Q16445); assay: as above; type: cell-based; conditions: for EC50: co-applied with GABA EC20, N-desmethylclobazam value estimated, curve not saturated at 1 mM; for Imax ± S.E.M.: % of the response evoked by GABA EC20 (EC20 response = 100%)
T5 construct: expressed in transfected cells; host or cells: Xenopus laevis oocytes (cRNA injection, α6:β2:δ 10:1:10)
T5 sequence (Q16445 20-453, one chain of several): as above
T5 sequence (O14764 25-452 partner, one chain of several): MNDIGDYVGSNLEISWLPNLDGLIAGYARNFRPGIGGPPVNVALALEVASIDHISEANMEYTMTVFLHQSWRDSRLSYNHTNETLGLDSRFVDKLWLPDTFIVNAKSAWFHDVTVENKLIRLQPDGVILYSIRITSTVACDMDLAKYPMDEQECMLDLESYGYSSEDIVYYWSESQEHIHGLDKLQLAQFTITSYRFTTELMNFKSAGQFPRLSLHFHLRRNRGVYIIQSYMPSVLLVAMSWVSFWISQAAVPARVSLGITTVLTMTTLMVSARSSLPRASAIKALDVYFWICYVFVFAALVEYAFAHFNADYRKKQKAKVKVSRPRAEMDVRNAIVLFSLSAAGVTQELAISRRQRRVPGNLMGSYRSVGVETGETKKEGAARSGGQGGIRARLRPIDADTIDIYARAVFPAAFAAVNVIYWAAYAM
Description: as §1, §2, §3

human α1β2γ2S GABAAR [1] = molecular target: T6, human α1β2γ2S GABAAR (Homo sapiens, UniProt P14867+P18507+P47870); conditions: for Imax ± S.E.M.: % of the response evoked by GABA EC20 (EC20 response = 100%)
T6 sequence (P18507 40-467 isoform P18507-1 limits assumed, one chain of several): as the sequence (P18507 40-467 isoform P18507-1 limits assumed, one chain of several) above
Description: (§5) Electrophysiological recordings were performed using the TEVC technique on Xenopus oocytes expressing various GABAAR combinations using a protocol adapted from previous studies [44, 45]. […] Cells were impaled with agar-plugged 0.5–1 MΩ electrodes containing 3 M KCl and voltage clamped at −70 mV by a Gene Clamp 500B amplifier (Axon Instruments, Union City, CA, USA) and recorded with pClamp 10 (Windows version, Molecular Devices, LLC, Sunnyvale, CA, USA). The oocytes were continuously perfused with Ringer buffer, and the test compounds were applied in the perfusate. Experiments were performed at room temperature and each data point represents the mean ± S.E.M. value of recordings performed on at least two oocytes from at least two different batches of oocytes. The recorded baseline-to-peak current amplitudes were analyzed using Clampfit 10.1 (Axon Instruments, Union City, CA, USA).

rat α3β3γ2L GABAAR = conditions: patch clamp, cited from earlier work; for EC50: 3 μM GABA (EC10–EC20), HEK-293T cells; for Imax: % of the responses evoked by GABA EC10–EC20, HEK-293T cells
[2] = system: human α1,2,3,5β2γ2S GABAARs; conditions: cited from earlier work
human α1β2γ2S GABAAR [3] = molecular target: T6, human α1β2γ2S GABAAR; assay: cell-based
Description: as §5

[4] = humans; cited from earlier work
human α1β2 GABAAR = molecular target: T7, human α1β2 GABAAR (Homo sapiens, UniProt P14867+P47870); assay: Zinc-mediated inhibition of GABA EC80-evoked currents, TEVC in Xenopus oocytes; type: cell-based; conditions: 100 μM Zn2+, 10 μM GABA (EC80), mean ± S.E.M.
T7 construct: expressed in transfected cells; host or cells: Xenopus laevis oocytes (cRNA injection, α1:β2 1:1)
T7 sequence (P14867 28-456): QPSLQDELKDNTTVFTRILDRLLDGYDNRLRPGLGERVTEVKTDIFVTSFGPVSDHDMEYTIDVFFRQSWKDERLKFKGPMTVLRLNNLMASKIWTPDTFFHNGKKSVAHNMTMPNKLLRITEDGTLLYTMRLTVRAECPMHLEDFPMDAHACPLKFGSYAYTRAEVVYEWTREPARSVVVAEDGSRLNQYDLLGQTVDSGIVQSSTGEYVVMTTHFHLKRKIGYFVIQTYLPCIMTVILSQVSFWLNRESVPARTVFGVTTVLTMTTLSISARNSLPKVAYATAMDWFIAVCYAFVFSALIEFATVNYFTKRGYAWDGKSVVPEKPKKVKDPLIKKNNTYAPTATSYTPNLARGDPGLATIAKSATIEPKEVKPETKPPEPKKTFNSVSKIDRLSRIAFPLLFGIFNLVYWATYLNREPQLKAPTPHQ
T7 sequence (P47870 26-474 isoform P47870-1 limits assumed): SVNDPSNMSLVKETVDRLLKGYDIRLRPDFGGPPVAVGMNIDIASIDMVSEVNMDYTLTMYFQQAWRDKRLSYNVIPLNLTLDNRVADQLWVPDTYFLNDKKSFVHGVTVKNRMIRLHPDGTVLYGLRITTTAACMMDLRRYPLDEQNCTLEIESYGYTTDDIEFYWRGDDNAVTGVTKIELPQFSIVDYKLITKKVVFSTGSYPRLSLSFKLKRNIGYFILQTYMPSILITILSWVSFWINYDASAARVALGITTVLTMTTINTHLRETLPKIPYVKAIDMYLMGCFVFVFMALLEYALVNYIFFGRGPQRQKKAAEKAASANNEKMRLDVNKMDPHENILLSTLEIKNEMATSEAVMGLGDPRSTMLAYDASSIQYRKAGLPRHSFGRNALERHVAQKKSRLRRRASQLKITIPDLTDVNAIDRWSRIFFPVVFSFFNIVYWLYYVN
Description: as §1, with “Following injection, the oocytes were incubated at 18°C in modified Barth’s solution [88 mM NaCl, 1 mM KCl, 15 mM HEPES (pH 7.5), 2.4 mM NaHCO3, 0.41 mM CaCl2, 0.82 mM MgSO4, 0.3 mM Ca(NO3)2, 100 U/mL penicillin and 100 μg/mL streptomycin]. Electrophysiological recordings were performed 3 to 6 days after injection.” left out
(§4) Electrophysiological recordings were performed using the TEVC technique on Xenopus oocytes expressing various GABAAR combinations using a protocol adapted from previous studies. […] Cells were impaled with agar-plugged 0.5–1 MΩ electrodes containing 3 M KCl and voltage clamped at −70 mV by a Gene Clamp 500B amplifier (Axon Instruments, Union City, CA, USA) and recorded with pClamp 10 (Windows version, Molecular Devices, LLC, Sunnyvale, CA, USA). […] The recorded baseline-to-peak current amplitudes were analyzed using Clampfit 10.1 (Axon Instruments, Union City, CA, USA). […]

human α1β2γ2S GABAAR [5] = molecular target: T6, human α1β2γ2S GABAAR; assay: as above; type: cell-based; set-up: expressed in transfected cells; host or cells: Xenopus laevis oocytes (cRNA injection, α:β2:γ2S 1:1:1); conditions: 100 μM Zn2+, 100 μM GABA (EC80), mean ± S.E.M.
Description: as §1, with “Following injection, the oocytes were incubated at 18°C in modified Barth’s solution [88 mM NaCl, 1 mM KCl, 15 mM HEPES (pH 7.5), 2.4 mM NaHCO3, 0.41 mM CaCl2, 0.82 mM MgSO4, 0.3 mM Ca(NO3)2, 100 U/mL penicillin and 100 μg/mL streptomycin]. Electrophysiological recordings were performed 3 to 6 days after injection.” left out
as §4

α1β2γ1 receptors = conditions: Xenopus oocytes; cited from earlier work
[6] = 1 mM compound, in % of the GABA EC20 response, curve not saturated

Compound	EC50 (human α2β2γ2S GABAAR) [nM]	Imax ± S.E.M. (human α2β2γ2S GABAAR) [%]	EC50 (human α3β2γ2S GABAAR) [nM]	Imax ± S.E.M. (human α3β2γ2S GABAAR)	EC50 (human α5β2γ2S GABAAR) [nM]	Imax ± S.E.M. (human α5β2γ2S GABAAR)	EC50 (human α6β2δ GABAAR; EC50, PAM) [nM]	Imax ± S.E.M. (human α1β2γ2S GABAAR [1]) [%]	EC50 (rat α3β3γ2L GABAAR) [nM]	Imax (rat α3β3γ2L GABAAR) [%]	fold higher binding affinity at α2β2γ2S compared to α1β2γ2S [2] [fold]	EC50 (human α1β2γ2S GABAAR [3]) [nM]	plasma half-life [4] [h]	Imax ± S.E.M. (human α6β2δ GABAAR) [%]	also measured
O=C1CC(=O)N(c2ccccc2)c2cc(Cl)ccc2N1 [N-desmethylclobazam]	138	270 ± 20	282	270 ± 27%	98	233 (248 and 217) ^b %	~300000	203 ± 8.5	550	270	4.3	151	79	–	EC50 (human α6β2 GABAAR): ~300000 nM; current evoked by 1 mM (given instead of Imax) (human α6β2 GABAAR; [6]): 2350 ± 200 ^a %; fold potentiation of the GABA EC20-evoked response (human α6β2δ GABAAR; 1 mM compound, curve not saturated): ~24 fold; current evoked by 1 mM (given instead of Imax) (human α6β2δ GABAAR; [6]): 2420 ± 210 ^a %
[Cl-].[Cl-].[Zn+2] [Zn^2+, ZnCl2]	–	–	–	–	–	–	–	–	–	–	–	–	–	–	degree of inhibition of GABA EC80-evoked currents (human α1β2 GABAAR): 77 ± 6.3%; degree of inhibition of GABA EC80-evoked currents (human α1β2γ2S GABAAR [5]): 4.7 ± 4.6%
CN1C(=O)CC(=O)N(c2ccccc2)c2cc(Cl)ccc21 [clobazam]	138	261 ± 6.7	240	269 ± 0.8%	174	216 ± 7.0%	55000	256 ± 12	490	487	2.5	132	36	528 ± 46	potentiation of GABA EC5-EC10-evoked responses (α1β2γ1 receptors): negligible potentiation
O=C1CN=C(c2ccccc2Cl)c2cc([N+](=O)[O-])ccc2N1 [clonazepam]	7.4	253 ± 17	16	316 (334 and 297) ^b %	20.9	255 ± 25%	29000	209 ± 14	90	263	–	15.5	–	283 ± 38	fold more potent than N-desmethylclobazam as a PAM (human α2β2γ2S GABAAR; EC50 ratio): 19 fold; fold more potent than clobazam as a PAM (human α2β2γ2S GABAAR; EC50 ratio): 19 fold; fold more potent than N-desmethylclobazam as a PAM (human α3β2γ2S GABAAR; EC50 ratio): 18 fold; fold more potent than clobazam as a PAM (human α3β2γ2S GABAAR; EC50 ratio): 15 fold; fold more potent than N-desmethylclobazam as a PAM (human α5β2γ2S GABAAR; EC50 ratio): 5 fold; fold more potent than clobazam as a PAM (human α5β2γ2S GABAAR; EC50 ratio): 8 fold; EC50 (human α6β2δ GABAAR; pEC50 ± S.E.M., PAM): 29500 nM; fold more potent than N-desmethylclobazam as a PAM (human α1β2γ2S GABAAR [1]; EC50 ratio): 10 fold; fold more potent than clobazam as a PAM (human α1β2γ2S GABAAR [1]; EC50 ratio): 9 fold
CN1C(=O)CN=C(c2ccccc2)c2cc(Cl)ccc21 [diazepam]	–	–	–	–	–	–	–	–	–	508	–	–	–	–	–
Cc1ccc(-c2nc3ccc(C)cn3c2CC(=O)N(C)C)cc1 [zolpidem]	–	–	–	–	–	–	–	–	–	–	–	–	–	–	fold potentiation of GABA EC20-evoked currents (human α2β2γ2S GABAAR; saturating concentration (3 μM)): 2.7 fold
